Measured values: patent US8202996B2, “Crystalline forms of N-(tert-butoxycarbonyl)-3-methyl-L-valyl-(4R)-4-((7-chloro-4-methoxy-1-isoquinolinyl)oxy)-N- ((1R,2S)-1-((cyclopropylsulfonyl)carbamoyl)-2-vinylcyclopropyl)-L-prolinamide” (Bristol-Myers Squibb Company, priority 2007, dated 2012)

How the values were obtained:
[1] = Interconversion of Forms H-1 and T1F-1/2 as a function of relative humidity; type: physicochemical; settings: solid state, FIG. 1
[2] = Crystal form in aqueous solution / suspension in water; type: physicochemical; settings: aqueous solutions / suspended in water

Structure (SMILES)	relative humidity at which Compound (I) exists as a mixture of H-1 and T1F-1/2 [1]	form stability in water [2]	relative humidity at which Compound (I) exists as this crystalline form [1] [% relative humidity]
C=C[C@@H]1C[C@]1(NC(=O)[C@@H]1C[C@@H](Oc2ncc(OC)c3ccc(Cl)cc23)CN1C(=O)[C@@H](NC(=O)OC(C)(C)C)C(C)(C)C)C(=O)NS(=O)(=O)C1CC1 [Compound (I), N-(tert-butoxycarbonyl)-3-methyl-L-valyl-(4R)-4-((7-chloro-4-methoxy-1-isoquinolinyl)oxy)-N-((1R,2S)-1-((cyclopropylsulfonyl)carbamoyl)-2-vinylcyclopropyl)-L-prolinamide]	15-45 % relative humidity	exists as H-1	–
C=C[C@@H]1C[C@]1(NC(=O)[C@@H]1C[C@@H](Oc2ncc(OC)c3ccc(Cl)cc23)CN1C(=O)[C@@H](NC(=O)OC(C)(C)C)C(C)(C)C)C(=O)NS(=O)(=O)C1CC1 [Form H-1, N-(tert-butoxycarbonyl)-3-methyl-L-valyl-(4R)-4-((7-chloro-4-methoxy-1-isoquinolinyl)oxy)-N-((1R,2S)-1-((cyclopropylsulfonyl)carbamoyl)-2-vinylcyclopropyl)-L-prolinamide]	–	–	> 45
C=C[C@@H]1C[C@]1(NC(=O)[C@@H]1C[C@@H](Oc2ncc(OC)c3ccc(Cl)cc23)CN1C(=O)[C@@H](NC(=O)OC(C)(C)C)C(C)(C)C)C(=O)NS(=O)(=O)C1CC1 [Form T1F-1/2, N-(tert-butoxycarbonyl)-3-methyl-L-valyl-(4R)-4-((7-chloro-4-methoxy-1-isoquinolinyl)oxy)-N-((1R,2S)-1-((cyclopropylsulfonyl)carbamoyl)-2-vinylcyclopropyl)-L-prolinamide]	–	rapidly converts to H-1	< 15
